Reference: patent US20120252853A1, “Positive allosteric modulators of nicotinic acetylcholine receptor” (H. Lundbeck A/S, priority 2011, published 2012)

Each compound was assayed against human α7 receptor (Homo sapiens, UniProt P36544) (assay: α7 NNR flux assay (FDSS Ca assay)). Settings: positive allosteric modulation; rat GH4C1 cell line stably expressing human α7; acetylcholine 20 μM; % modulation relative to PNU-120596 set to 100%.
Type: cell-based
Method: In this version of the assay, the human α7 receptor is stably expressed in the rat GH4C1 cell line. The assay was used to identify positive allosteric modulators (PAMs) of the α7 receptor. Activation of the channel was measured by loading cells with the calcium-sensitive fluorescent dye Calcium-4 (Assay kit from Molecular Devices), and then measuring real-time changes in fluorescence upon treatment with test compounds.
The cell line ChanClone GH4C1-nAChRalpha7 from Genionics was seeded from frozen stock in 384-well plates in culture media 2-3 days before experiment to form an approximately 80% confluent layer on the day of experiment.
The cell culture were split into “22.5 cm×22.5 cm”-plates with approximately 100×10^3 cells/cm^2. After four days incubation in a humidified incubator at 37° C. and 5% CO2, it had grown to an 80-90% confluent layer, and the cells were harvested.
Two or three days before the experiment the cells were seeded in 384 well plates from Greiner bio-one (781946, CELLCOAT, Poly-D-Lysine, black, μClear).
The cells were seeded in 384 well plates with 30 μL/well (30000 cells/well) while stirring the cell suspension or otherwise preventing the cells from precipitating. The plates were incubated at room temperature for 30-45 minutes. The plates were placed in incubator for two days (37° C. and 5% CO2).
The loading buffer was 5% v/v Calcium-4 Kit and 2.5 mM Probenecid in assay buffer.
Culture media were removed from the cell plates and 20 μL loading buffer was added in each well. The cell plates were placed in trays and incubated 90 minutes in the incubator (37° C.). Thereafter the plates were incubated 30 minutes at room temperature, still protected from light. Now the cell plates were ready to run in the Functional Drug Screening System (FDSS) The assay buffer was HBSS with 20 mM HEPES, pH 7.4 and 3 mM CaCl2.
200 nL 10 mM compound solution in DMSO was diluted in 50 μL assay buffer. The final test concentrations in the cell plates were 20-10-5-2.5-1.25-0.625-0.312-0.156-0.078-0.039 μM. Assay buffer and 3 μM PNU-120596 were used for control:
The agonist acetylcholine was added to a final concentration of 20 μM (˜EC100). In the FDSS7000 the Ex480-Em540 was measured with 1 second intervals. The baseline was made of 5 frames before addition of test compounds, and 95 frames more were made before addition of acetylcholine. The measurement stopped 30 frames after the 2nd addition. Raw data for each well were collected as “the maximum fluorescence count” in the interval 100-131 seconds and as “the average fluorescence count” in the interval 96-100 seconds. The positive allosteric modulation in the 2nd addition was the enhancement of agonist response with test compound compared to agonist alone.
Results were calculated as % modulation of test compound compared to the reference PNU-120596 set to 100%.

Sequence of human α7 receptor (P36544 23-502): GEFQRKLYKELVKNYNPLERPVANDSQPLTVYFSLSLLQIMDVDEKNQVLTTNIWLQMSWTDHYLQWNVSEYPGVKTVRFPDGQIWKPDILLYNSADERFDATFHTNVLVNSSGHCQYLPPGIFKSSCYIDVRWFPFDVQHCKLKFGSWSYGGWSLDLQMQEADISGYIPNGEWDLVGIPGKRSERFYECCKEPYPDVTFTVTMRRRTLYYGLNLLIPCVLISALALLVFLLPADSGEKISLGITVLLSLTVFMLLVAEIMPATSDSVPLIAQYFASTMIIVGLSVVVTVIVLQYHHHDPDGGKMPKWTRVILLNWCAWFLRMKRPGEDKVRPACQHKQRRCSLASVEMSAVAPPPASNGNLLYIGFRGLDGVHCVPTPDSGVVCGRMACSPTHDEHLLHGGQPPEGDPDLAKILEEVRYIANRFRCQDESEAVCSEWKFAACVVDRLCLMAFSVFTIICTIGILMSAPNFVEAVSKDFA

SMILES	EC50 [µM]
Cc1cc(C(=O)NCc2ccc3c(c2)cc(C(F)(F)F)n3C)on1 [Compound 89, 3-methyl-N-[[1-methyl-2-(trifluoromethyl)indol-5-yl]methyl]isoxazole-5-carboxamide]	5.6
Cn1c(C(F)(F)F)cc2cc(CNC(=O)c3cc(CC(F)(F)F)no3)ccc21 [Compound 90, N-[[1-methyl-2-(trifluoromethyl)indol-5-yl]methyl]-3-(2,2,2-trifluoroethyl)isoxazole-5-carboxamide]	5
O=C(NCc1ccc2[nH]c(C(F)F)cc2c1)c1cnn(CC(F)(F)F)c1 [Compound 91, N-[[2-(difluoromethyl)-1H-indol-5-yl]methyl]-1-(2,2,2-trifluoroethyl)pyrazole-4-carboxamide]	1.7
Cc1cc(C(=O)NCc2ccc3[nH]c(C(F)F)cc3c2)on1 [Compound 92, N-[[2-(difluoromethyl)-1H-indol-5-yl]methyl]-3-methyl-isoxazole-5-carboxamide]	8.3
O=C(NCc1ccc2[nH]c(C(F)F)cc2c1)c1cc(CC(F)(F)F)no1 [Compound 93, N-[[2-(difluoromethyl)-1H-indol-5-yl]methyl]-3-(2,2,2-trifluoroethyl)isoxazole-5-carboxamide]	5.4
Cc1cc2cc(CNC(=O)c3ccn(CCF)n3)ccc2[nH]1 [Compound 94, 1-(2-fluoroethyl)-N-[(2-methyl-1H-indol-5-yl)methyl]pyrazole-3-carboxamide]	9.5
COCCn1ccc(C(=O)NCc2ccc3[nH]c(C)cc3c2)n1 [Compound 95, 1-(2-methoxyethyl)-N-[(2-methyl-1H-indol-5-yl)methyl]pyrazole-3-carboxamide]	7.7
COCc1cc(C(=O)NCc2ccc3[nH]c(C)cc3c2)on1 [Compound 98, 3-(methoxymethyl)-N-[(2-methyl-1H-indol-5-yl)methyl]isoxazole-5-carboxamide]	3.5
Cc1cc2cc(CNC(=O)c3cnn(CCF)c3)ccc2[nH]1 [Compound 99, 1-(2-fluoroethyl)-N-[(2-methyl-1H-indol-5-yl)methyl]pyrazole-4-carboxamide]	6.4
COCCn1cc(C(=O)NCc2ccc3[nH]c(C)cc3c2)cn1 [Compound 100, 1-(2-methoxyethyl)-N-[(2-methyl-1H-indol-5-yl)methyl]pyrazole-4-carboxamide]	8.5
Cc1[nH]c2ccc(CNC(=O)c3cnn(CC(F)(F)F)c3)cc2c1C [Compound 101, N-[(2,3-dimethyl-1H-indol-5-yl)methyl]-1-(2,2,2-trifluoroethyl)pyrazole-4-carboxamide]	2.9
Cc1cc(C(=O)N[C@H](C)c2cc3cc(C)[nH]c3cc2F)on1 [Compound 102, N-[(1R)-1-(6-fluoro-2-methyl-1H-indol-5-yl)ethyl]-3-methyl-isoxazole-5-carboxamide]	1
Cc1cc(C(=O)N[C@H](C)c2cc3cc[nH]c3c(C)c2F)on1 [Compound 103]	0.33
Cc1cc(C(=O)NCc2cc3cc(C)[nH]c3cc2F)on1 [Compound 104, N-[(6-fluoro-2-methyl-1H-indol-5-yl)methyl]-3-methyl-isoxazole-5-carboxamide]	4.2
Cc1cc2cc(CNC(=O)c3ncc(C)o3)ccc2[nH]1 [Compound 116, 5-methyl-N-[(2-methyl-1H-indol-5-yl)methyl]oxazole-2-carboxamide]	9.9

Results, then the compound that gave them:

EC50 [µM]	SMILES
2.9	Cc1cc(C(=O)NCc2cc3cc[nH]c3c(C)c2F)on1 [Compound 105, N-[(6-fluoro-7-methyl-1H-indol-5-yl)methyl]-3-methyl-isoxazole-5-carboxamide]
1.7	Cc1cc2cc(CNC(=O)c3cc(CCF)no3)ccc2[nH]1 [Compound 106, 3-(2-fluoroethyl)-N-[(2-methyl-1H-indol-5-yl)methyl]isoxazole-5-carboxamide]
0.56	Cc1cc(C(=O)NCc2ccc3[nH]c(C)cc3c2)sn1 [Compound 107, 3-methyl-N-[(2-methyl-1H-indol-5-yl)methyl]isothiazole-5-carboxamide]
7.7	Cc1cc(C(=O)NCc2ccc3[nH]c(CC(F)(F)F)cc3c2)on1 [Compound 108, 3-methyl-N-[[2-(2,2,2-trifluoroethyl)-1H-indol-5-yl]methyl]isoxazole-5-carboxamide]
3.1	Cc1cc(C(=O)NCc2cc(F)c3[nH]c(C)cc3c2)on1 [Compound 109, N-[(7-fluoro-2-methyl-1H-indol-5-yl)methyl]-3-methyl-isoxazole-5-carboxamide]
6.5	Cc1cc(C(=O)NCc2ccc3[nH]c(C)cc3c2F)on1 [Compound 110, N-[(4-fluoro-2-methyl-1H-indol-5-yl)methyl]-3-methyl-isoxazole-5-carboxamide]
1.3	Cc1cc(C(=O)N[C@H](C)c2cc(F)c3[nH]c(C)cc3c2)on1 [Compound 111, N-[(1R)-1-(7-fluoro-2-methyl-1H-indol-5-yl)ethyl]-3-methyl-isoxazole-5-carboxamide]
1.1	COCc1cc(C(=O)N[C@H](C)c2ccc3[nH]c(C)cc3c2)on1 [Compound 112, 3-(methoxymethyl)-N-[(1R)-1-(2-methyl-1H-indol-5-yl)ethyl]isoxazole-5-carboxamide]
0.79	Cc1cc2cc([C@@H](C)NC(=O)c3cc(CCF)no3)ccc2[nH]1 [Compound 113, 3-(2-fluoroethyl)-N-[(1R)-1-(2-methyl-1H-indol-5-yl)ethyl]isoxazole-5-carboxamide]
5	COCc1cc(C(=O)NCc2ccc3[nH]c(C(F)(F)F)cc3c2)on1 [Compound 114, 3-(methoxymethyl)-N-[[2-(trifluoromethyl)-1H-indol-5-yl]methyl]isoxazole-5-carboxamide]
4.3	O=C(NCc1ccc2[nH]ccc2c1)c1cc(CCF)no1 [Compound 115, 3-(2-fluoroethyl)-N-(1H-indol-5-ylmethyl)isoxazole-5-carboxamide]
7	Cc1cc2cc(CNC(=O)c3cnn4c3CCC4)ccc2[nH]1 [Compound 117, N-[(2-methyl-1H-indol-5-yl)methyl]-5,6-dihydro-4H-pyrrolo[1,2-b]pyrazole-3-carboxamide]
7.2	Cc1cc2cc(CNC(=O)c3cc4n(n3)CCC4)ccc2[nH]1 [Compound 118, N-[(2-methyl-1H-indol-5-yl)methyl]-5,5-dihydro-4H-pyrrolo[1,2-b]pyrazole-2-carboxamide]
7.1	Cc1noc(C(=O)NCc2ccc3[nH]c(C)cc3c2)n1 [Compound 119, 3-methyl-N-[(2-methyl-1H-indol-5-yl)methyl]-1,2,4-oxadiazole-5-carboxamide]
3.3	Cc1cc(C(=O)NCc2ccc3[nH]c(C#N)cc3c2)sn1 [Compound 120, N-[(2-cyano-1H-indol-5-yl)-methyl]-3-methyl-isothiazole-5-carboxamide]
4.8	Cc1cc(C(=O)N[C@H](C)c2ccc3[nH]c(C#N)cc3c2)on1 [Compound 121, N-[(1R)-1-(2-cyano-1H-indol-5-yl)ethyl]-3-methyl-isoxazole-5-carboxamide]
